# Experimental data as given in PubChem BioAssay (NCI).
#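 Dose response: 5 concentrations. Exposure: 48 h. Format: 96-well plates. Endpoint: linear interpolation; highest concentration if not reached. GI50 is the concentration that inhibits growth by half. TGI marks complete inhibition of growth.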
# Experiments:
# Test in all cases: inhibition of tumour cell growth, NCI panel, 48 h
# [1] = test system: OVCAR-5 ovarian
# [2] = test system: COLO 205 colon
# [3] = test system: HOP-18 NSCLC
# [4] = test system: SW-620 colon
# [5] = test system: OVCAR-3 ovarian
# [6] = test system: HCT-15 colon
# [7] = test system: DMS 273 small cell lung
# [8] = test system: CCRF-CEM leukemia
# [9] = test system: LOX IMVI melanoma
# [10] = test system: NCI-H226 lung
SMILES,TGI [1] [µM],TGI [2] [µM],TGI [3] [µM],TGI [4] [µM],TGI [5] [µM],TGI [6] [µM],TGI [7] [µM],TGI [8] [µM],TGI [9] [µM],TGI [10] [µM],GI50 [1] [µM],GI50 [2] [µM],GI50 [5] [µM],GI50 [6] [µM],GI50 [7] [µM],GI50 [8] [µM],GI50 [9] [µM],GI50 [10] [µM]
O=C(Nc1c(-c2nc3ccccc3[nH]2)sc(=S)n1-c1ccccc1)c1ccccc1,> 100,> 100,> 100,> 100,> 100,> 100,> 100,> 100,> 100,58.1,,,,,,,,
O=C(CCC(=O)Nc1ccc(Cl)cc1)CC(=O)c1ccc(F)cc1,> 100,> 100,,> 100,> 100,> 100,> 100,,> 100,> 100,,,,,,,,
CCC[CH2][Sn]([CH2]CCC)([O]C(=O)c1cccc(F)c1)[O]C(=O)c1cccc(F)c1,4.24,2.18,,,2.17,3.45,3.4,0.832,2.99,2.4,2.67,0.852,0.956,1.16,1.39,0.239,0.605,1.16
Cc1ccc(C)c(NC(=O)c2cc(-c3ccc([N+](=O)[O-])cc3)nc(N)n2)c1,> 100,> 100,> 100,> 100,> 100,> 100,> 100,> 100,> 100,> 100,,,,,,,,
O=c1cc(Cl)nc[nH]1,> 100,> 100,> 100,> 100,> 100,> 100,> 100,> 100,> 100,> 100,,,,,,,,
O=Cc1ccc(-c2ccc(-c3ccc(C=O)s3)o2)s1,11,37,> 100,> 100,5.89,> 100,> 100,> 100,> 100,2.46,,,,,,,,
CC(=O)OC1CCn2nnc(COC(=O)NC(C)C)c21 (centres undefined),> 100,,> 100,> 100,> 100,> 100,,,,> 100,,,,,,,,
CC(c1ccc(Br)cc1)C(C(=O)O)C(=O)O (centres undefined),> 100,> 100,> 100,> 100,> 100,> 100,> 100,> 100,> 100,> 100,,,,,,,,
CCCNCc1nc2ccc(Br)cc2c(=O)n1CCC,,27.7,32.1,28.3,32.5,27.4,25.2,36.3,17.7,26,,,,,,,,
O=c1/c(=C/c2ccc(Cl)cc2Cl)sc2nc3ccccc3n12,> 100,> 100,> 100,> 100,> 100,> 100,> 100,> 100,> 100,> 100,,,,,,,,
O=c1c2ccc3cccc4c(=O)cc(c5ccccc15)-c2c34,> 100,> 100,> 100,> 100,> 100,> 100,> 100,> 100,> 100,> 100,,,,,,,,
